Results as given in US20220249476A1, “MutL LOSS PREDICTS SENSITIVITY TO CDK4/6 INHIBITORS IN CANCER” (Baylor College of Medicine, priority 2018, published 2022).

How the values were obtained:
ER+ PDX lines (BCaPE) = conditions: four CENMP- PDX lines compared with three CENMP+ lines; p=0.02; cited from earlier work
ZR-75 cells = assay: Growth assay (Alamar blue) in ZR-75 cells with knockdown of DDR genes; assay type: cell-based, human; conditions: siCETN2, siNEIL2 and siERCC1 ZR-75 cells (transient siRNA) vs siScr; media containing full serum
Procedure: ZR75.1 and MCF7 parental cells were from ATCC, 2015 and 2017 respectively, and tested for mycoplasma contamination upon arrival using the Lonza Mycoalert Plus Kit (CAT# LT07-710) as per the manufacturer's instructions, and annually since. Both lines were maintained in RPMI 1640 1X w/ L-glutamine and 1% Penicillin/Streptomycin (Sigma-Aldrich, CAT#P4333—100 mL). Cell lines used for experiments were <20 passages. Transient transfections with esiRNA (Sigma-Aldrich) towards human NEIL2 (CAT#EHU158461), CETN2 (CAT#EHU137031), ERCC1 (CAT#EHU156971), RAD23B (CAT#EHU145881) and POLM (CAT#SASI_Hs02_003344553), or scrambled control used at 50 nmoles/L each were delivered using Polypluys jetPRIME® transfection reagent (CAT#114-07) as per the manufacturer's instructions. Cells were plated for experiments 48 hrs after transfection. Stable selection with puromycin after infection with lentivirus harboring RNAi oligos (ABM) against human NEIL2 (CAT#i014980a), CETN2 (CAT#i004479a), and ERCC1 (CAT#i007023a) or scrambled control (CAT#i000238c) was conducted using manufacturer's protocol. Growth assays were repeated independently in triplicate as previously reported (50) using Alamar blue to detect cell viability. Final readings were between 4-6 days after initial drug treatment and fold change plotted for analysis. […]

MCF7 cells [1] = assay: FACS analysis for PCNA in MCF7 cells after fulvestrant treatment; assay type: cell-based, human; conditions: MCF7 cells with stable knockdown of CETN2, NEIL2, ERCC1 and MLH1 relative to control cells; 100 nM fulvestrant
Procedure: (§1) FIGS. 17A-17E. Dysregulation of CETN2, NEIL2 and ERCC1 expression in ER+ breast cancer cells alters regulation of G1/S transition of the cell cycle. FIG. 17A & FIG. 17D) Histograms representing percentage of siScr, siCETN2, siNEIL2, siERCC1 and siMLH1 MCF7 cells that are Ki67 (FIG. 17A) and PCNA (FIG. 17D) positive after 48 hours of treatment with 100 nM of fulvestrant. Columns represent the mean and error bars the standard deviation. Student's t-test determined p-values. FIG. 17B-FIG. 17C) Boxplots indicating levels of CDK4 mRNA and PCNA protein level in CETN2, ERCC1, NEIL2, PRKDC proficient (CEN+PRKDCwt) and deficient (CEN-PRKDCmut) ER+ breast tumors based on values from microarray and RPPA data from TCGA. Wilcoxon Rank Sum test determined p-values. FIG. 17E) Histograms depicting percent growth inhibition in fulvestrant and abemaciclib (CDK4/6i)-treated MCF7 cells stably selected for RNAi-mediated knockdown of control, CETN2, ERCC1 or NEIL2, relative to vehicle treated cells. […] Student's t-test determined p-values.
(§2) RNA from cell lines was extracted using the Qiagen RNeasy Mini Kit (CAT#74106) and converted to cDNA using Bio-Rad Reverse Transcriptase iScript (CAT#TX1708891BAY), both following manufacturers' instructions. cDNA was quantified by qPCR using Bio-Rad SsoAdvanced Universal SYBR Green supermix (CAT#17525272) at the manufacturers specifications. […]

MCF7 cells [2] = assay: Growth assay (Alamar blue) in MCF7 cells with knockdown of DDR genes; assay type: cell-based, human; conditions: for sensitivity (growth inhibition relative to vehicle treated cells): 100 nM fulvestrant, 1 μM Palbociclib
Procedure: ZR75.1 and MCF7 parental cells were from ATCC, 2015 and 2017 respectively, and tested for mycoplasma contamination upon arrival using the Lonza Mycoalert Plus Kit (CAT# LT07-710) as per the manufacturer's instructions, and annually since. Both lines were maintained in RPMI 1640 1X w/ L-glutamine and 1% Penicillin/Streptomycin (Sigma-Aldrich, CAT#P4333—100 mL). Cell lines used for experiments were <20 passages. Transient transfections with esiRNA (Sigma-Aldrich) towards human NEIL2 (CAT#EHU158461), CETN2 (CAT#EHU137031), ERCC1 (CAT#EHU156971), RAD23B (CAT#EHU145881) and POLM (CAT#SASI_Hs02_003344553), or scrambled control used at 50 nmoles/L each were delivered using Polypluys jetPRIME® transfection reagent (CAT#114-07) as per the manufacturer's instructions. Cells were plated for experiments 48 hrs after transfection. Stable selection with puromycin after infection with lentivirus harboring RNAi oligos (ABM) against human NEIL2 (CAT#i014980a), CETN2 (CAT#i004479a), and ERCC1 (CAT#i007023a) or scrambled control (CAT#i000238c) was conducted using manufacturer's protocol. Growth assays were repeated independently in triplicate as previously reported (50) using Alamar blue to detect cell viability. Final readings were between 4-6 days after initial drug treatment and fold change plotted for analysis. Fulvestrant(Fisher Scientific CAT#506242), 4-OHT(Sigma-Aldrich CAT#H7904), Palbociclib (ThermoFisher CAT#508548) and Abemaciclib (ThermoFisher CAT#NC0577560), dissolved in DMSO, and β-estradiol (Sigma-Aldrich CAT#E2758-1G), dissolved in water, at 10 mmoles/L were stored long term at −80 C with working stocks at −20 C. Cells were treated 24 hours after plating with fresh drug added every 48 hrs until the end of the experiment. Estradiol addition experiments were conducted in phenol red-free DMEM with 10% charcoal stripped serum.

MCF7 cells [3] = assay: Ki67 immunofluorescence in MCF7 cells before and after fulvestrant treatment; assay type: cell-based, human; conditions: siCETN2, siNEIL2, siERCC1 MCF7 cells vs siScr control; 100 nM fulvestrant, 48 hours
Procedure: as §1, §2

CC(C)(C#N)c1cc(Cn2cncn2)cc(C(C)(C)C#N)c1 [anastrozole]
tumor viability after treatment (AUC) (ER+ PDX lines (BCaPE)): significantly higher tumor viability

C[C@]12CC[C@@H]3c4ccc(O)cc4C[C@@H](CCCCCCCCC[S+]([O-])CCCC(F)(F)C(F)(F)F)[C@H]3[C@@H]1CC[C@@H]2O (stereo partly drawn) [fulvestrant, Fulvestrant]
growth inhibition in response to treatment (ZR-75 cells): significant lack of growth inhibition | PCNA positivity after treatment (MCF7 cells [1]): Increased PCNA positivity | growth phenotype under treatment (MCF7 cells [2]; MCF7 cells stably selected with lentiviral RNAi against CETN2, NEIL2, ERCC1): Fulvestrant-independent | growth response to treatment (MCF7 cells [2]; MCF7 cells with siRNA knockdown of negative control genes RAD23B and POLM): did not alter growth response | sensitivity (growth inhibition relative to vehicle treated cells) (MCF7 cells [2]; MCF7 cells with stable knockdown of CETN2, NEIL2 or ERCC1): resistance | sensitivity (growth inhibition relative to vehicle treated cells) (MCF7 cells [2]; control MCF7 cells (scrambled RNAi)): comparable sensitivity | growth inhibition in response to treatment (MCF7 cells [2]; siCETN2, siNEIL2 and siERCC1 MCF7 cells (transient siRNA) vs siScr, media containing full serum): significant lack of growth inhibition | Ki67 inhibition in response to treatment (MCF7 cells [3]): profound lack of Ki67 inhibition
